Laboratory results published in the OligoGym collection.
Bases are written 5' to 3'; sugars and linkages follow in the same order, as letters with counts (s phosphorothioate, o phosphodiester; PS: all linkages phosphorothioate). The collection does not say whether C is 5-methylated. l = locked nucleic acid (LNA); d = 2'-deoxy (DNA)

Biological target: Tau
Assay: rat primary cortical neurons, FLIPR, 25 uM ASO

Sequence	calcium oscillation score
TGGGTGATATTGTCCA (sugars l3 d10 l3, PS)	92.6 % of control
CGCCTTTAGTGATTACAGGC (sugars l3 d14 l3, PS)	20.2 % of control
ATCAATTTGGAAAGATGAAA (sugars l3 d14 l3, PS)	10.4 % of control
ATGATTAATTACACCCC (sugars l3 d11 l3, PS)	8.2 % of control
CCTTGAAGTCAAGCTTCTCA (sugars l3 d14 l3, PS)	66.4 % of control
CCATTTTTATCATCACCT (sugars l3 d13 l2, PS)	63.8 % of control
CGCAGGCGCGAGCA (sugars l3 d8 l3, PS)	102 % of control
CTCCAATTTTAAACTTAA (sugars l4 d10 l4, PS)	69 % of control
CCACATTTGTCTTTAAC (sugars l3 d10 l4, PS)	42.9 % of control
TGTCATCGCTTCCAGT (sugars l3 d10 l3, PS)	88 % of control
TTATTTCCAAATTCACTTTT (sugars l5 d10 l5, PS)	≥ 200 % of control
CATTATCATCCATTCTG (sugars l3 d10 l4, PS)	47.3 % of control
TATTTCCAAATTCACTTTTA (sugars l2 d16 l2, PS)	≥ 200 % of control
CAGGGACGTGGGTGATATTG (sugars l3 d14 l3, PS)	0 % of control
CGAAACCAAGGTCCCACCAG (sugars l3 d14 l3, PS)	40.4 % of control
TCCCCATTTATCCTTCA (sugars l2 d13 l2, PS)	65.9 % of control
CAAACCAGTTACCATCA (sugars l4 d9 l4, PS)	87.7 % of control
TCCAGTCCCGTCTTTG (sugars l3 d10 l3, PS)	11.5 % of control
AAACTTTTACTCTGACT (sugars l4 d9 l4, PS)	59.4 % of control
GGCATGATTGTGGGCT (sugars l3 d10 l3, PS)	6.12 % of control
GATGGATGTTGCCTAATGAG (sugars l3 d14 l3, PS)	0 % of control
TATTGTCCAGGGACCC (sugars l3 d10 l3, PS)	29.9 % of control

Sequence	calcium oscillation score
CGTGGTCTGTCTTG (sugars l3 d8 l3, PS)	0 % of control
GACTGCTCAGCTAAGACCCT (sugars l3 d14 l3, PS)	31.2 % of control
CTTTATTTCCAAATTCACTT (sugars l2 d2 l1 d11 l4, PS)	74.5 % of control
TAATCACTCATGCCTT (sugars l4 d8 l4, PS)	65.6 % of control
CAGACACCACTGGCGACTTG (sugars l3 d14 l3, PS)	46.5 % of control
AGTCACTCTGGTGA (sugars l3 d8 l3, PS)	97.1 % of control
CAAACCAACTCAACATTACC (sugars l4 d14 l2, PS)	94.7 % of control
ACTTTATTTCCAAATTCACTTTTAC (sugars l3 d18 l4, PS)	35.4 % of control
TCTCAGTGGAGCCGATCTTG (sugars l3 d14 l3, PS)	0 % of control
TATTATCCTTTGAGCCACAC (sugars l3 d14 l3, PS)	77.4 % of control
TTATTTCCAAATTCACTTTT (sugars lllldddddddddldlddll, PS)	102 % of control
TTGATACCCTTCCTCA (sugars l3 d10 l3, PS)	14.3 % of control
AAATCAATTCTCATTTCAAC (sugars l4 d12 l4, PS)	58.2 % of control
GTGATGCAGGAGTTGT (sugars l3 d10 l3, PS)	13.5 % of control
AACCAACTTTCATCTACTTT (sugars l4 d14 l2, PS)	63 % of control
GGCGACTTGTACACGA (sugars l3 d10 l3, PS)	69.4 % of control
CCTAATCCTGTGCT (sugars l3 d8 l3, PS)	62.6 % of control
TCTTCAGGTCTGGCAT (sugars l3 d10 l3, PS)	39.1 % of control
GTTAGCCCTAAAGTCCCAGG (sugars l3 d14 l3, PS)	27.9 % of control
TCCACAAACCAACTCAA (sugars l3 d10 l4, PS)	99.5 % of control
CCAATTAACCGAACTGCGAG (sugars l3 d14 l3, PS)	41.4 % of control
TCAGATTTAATTCTCAC (sugars l4 d9 l4, PS)	50.7 % of control

Sequence	calcium oscillation score
GCCCATTCTACCTGGCCCAT (sugars l3 d14 l3, PS)	38.3 % of control
CAACTCTTTGAACACCC (sugars l4 d11 l2, PS)	76.8 % of control
ATCCTGGTGGCGTTGGCCTG (sugars l3 d14 l3, PS)	0 % of control
AATATTACACCATCCAA (sugars l4 d9 l4, PS)	95.7 % of control
AACTTACCAGTTTTTCA (sugars l4 d9 l4, PS)	62.3 % of control
CCCCATTCAGATCTATC (sugars l2 d13 l2, PS)	98.8 % of control
GTCCCCCAAAATATCTC (sugars l3 d12 l2, PS)	72.1 % of control
TATTTCCAAATTCACTTTTA (sugars l5 d11 l4, PS)	121 % of control
AAGTGATTAACCAATTAACC (sugars l3 d14 l3, PS)	57 % of control
GTATCCAGCCATATTTCAAC (sugars l3 d14 l3, PS)	36.7 % of control
CTCAAATCAAACTAATATT (sugars l4 d11 l4, PS)	98.6 % of control
GTCCCGAGCCAAAG (sugars l3 d8 l3, PS)	0 % of control
CATGCTTACACACCAC (sugars l2 d10 l4, PS)	82.9 % of control
TCCCTTAATTTCACC (sugars l3 d9 l3, PS)	80.5 % of control
CGACTTATCTATCCAT (sugars l4 d9 l3, PS)	46.2 % of control
TTATTTCCAAATTCACTTTT (sugars lldlddldddddddddllll, PS)	131 % of control
CTTAGCATCAGAGGTTTCAG (sugars l3 d14 l3, PS)	7.41 % of control
TATTGAACTCACCCACT (sugars l2 d11 l4, PS)	65.7 % of control
GCTCCATATTCCTGCCCAAG (sugars l3 d14 l3, PS)	34.2 % of control
TCATTTACCAATTATCTTTA (sugars l4 d13 l3, PS)	48.8 % of control
TGATTGTGGGCTTA (sugars l3 d8 l3, PS)	28.7 % of control
AGCAGAGGAACGTGTG (sugars l3 d10 l3, PS)	11.1 % of control

Sequence	calcium oscillation score
TCCACCCTTACACATA (sugars l3 d11 l2, PS)	48.8 % of control
TCCTCACTTTACACATTAA (sugars l4 d13 l2, PS)	62.5 % of control
TTAACCCTTGATCATATTTG (sugars l3 d14 l3, PS)	14.3 % of control
ACAAACAATCCATTTATAT (sugars l4 d11 l4, PS)	46.2 % of control
CTTACACACCACACACACT (sugars l1 d16 l2, PS)	100 % of control
AGAGACCACATTATCATCCA (sugars l3 d14 l3, PS)	26.2 % of control
GTCTTCACATCCCAACT (sugars l4 d11 l2, PS)	82.1 % of control
TGGATGTTGCCTAATG (sugars l3 d10 l3, PS)	0 % of control
CAACTTTCATCTACTTTTCA (sugars l3 d14 l3, PS)	94.4 % of control
TGTTTGATATTATCCT (sugars l3 d10 l3, PS)	104 % of control
TTCTTCCTTTGTAATTCC (sugars l3 d13 l2, PS)	39.6 % of control
TCAACTCTTAGCATCCAC (sugars l2 d13 l3, PS)	50 % of control
CCTGGTGGCGTTGGCC (sugars l3 d10 l3, PS)	32.6 % of control
CCATGATCTTAGGCTG (sugars l3 d10 l3, PS)	17.6 % of control
CACTTTACACATTAAATTTA (sugars l4 d12 l4, PS)	60.9 % of control
CCACCTCCTGGTTTAT (sugars l3 d10 l3, PS)	104 % of control
TAATTCATAAATGACTATAC (sugars l3 d14 l3, PS)	72.5 % of control
CGTCCCAGCGTGATCTTCCA (sugars ldlllddddddddddlldll, PS)	38.3 % of control
CCCTAAAGTCCCAG (sugars l3 d8 l3, PS)	51.4 % of control
GGCGAGTCTACCATGT (sugars l3 d10 l3, PS)	43.4 % of control
GTCTGTCTTGGCTTTG (sugars l3 d10 l3, PS)	0 % of control
CTGAAAGAGGGCAGCA (sugars l3 d10 l3, PS)	36.8 % of control

Sequence	calcium oscillation score
CCTCCCACCTATCAGTCA (sugars l1 d15 l2, PS)	46.2 % of control
TTATTCTTTTTTTTTCCACA (sugars l2 d14 l4, PS)	30.3 % of control
CGTGGGTGATATTGTC (sugars l3 d10 l3, PS)	0 % of control
GAAGGTCAGCTTGTGG (sugars l3 d10 l3, PS)	11.4 % of control
TAATTCACACAACAAACTA (sugars l4 d11 l4, PS)	88.7 % of control
ACCTCATTAAGATCACC (sugars l2 d11 l4, PS)	69.7 % of control
CAACTCTTTGAACACCCC (sugars l2 d14 l2, PS)	91.6 % of control
TTCATCACCAAGTCCCA (sugars l3 d12 l2, PS)	66.8 % of control
TTAACCAATTAACCGAACTG (sugars l3 d14 l3, PS)	122 % of control
TTTTTTAACTCCCAACTCT (sugars l4 d13 l2, PS)	95.7 % of control
CATGATCTTAGGCTG (sugars l3 d9 l3, PS)	46 % of control
TCCCTTAATTTCAC (sugars l3 d8 l3, PS)	133 % of control
TCCCCATTTATCCTTCAT (sugars l2 d13 l3, PS)	77.3 % of control
GGTCAACTGGTTTGTAGACT (sugars l3 d14 l3, PS)	6.9 % of control
TTATACAGTTGGCCCTACCA (sugars l3 d14 l3, PS)	40.5 % of control
CCATCCTATCTTCTAG (sugars l3 d10 l3, PS)	44.3 % of control
AGAGGAACGTGTGGAT (sugars l3 d10 l3, PS)	25.9 % of control
GCAAACAGGATACAGT (sugars l3 d10 l3, PS)	0 % of control
CTTTTAATTAAATTTCTCCC (sugars l2 d15 l3, PS)	87.6 % of control
CCAGTTACCATCATACA (sugars l2 d12 l3, PS)	91.8 % of control
